The experiment has as its target T1, TAOK1 (Homo sapiens, UniProt Q7L7X3).
T1 construct: purchased Thermo Fisher Scientific (Life Technologies) SelectScreen
As to the kind of experiment: SelectScreen LanthaScreen. It counts as binding. Conditions: read-out: % displacement. The method, boiled down: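 NU5455 was profiled across the SelectScreen Broad panel of kinase activity and binding assays. Z'LYTE reactions such as CSF1R ran at apparent Km ATP, while the Adapta CAMK1 assay used ATP listed as 10. Values are given as percent.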

T1 sequence (Q7L7X3 whole entry): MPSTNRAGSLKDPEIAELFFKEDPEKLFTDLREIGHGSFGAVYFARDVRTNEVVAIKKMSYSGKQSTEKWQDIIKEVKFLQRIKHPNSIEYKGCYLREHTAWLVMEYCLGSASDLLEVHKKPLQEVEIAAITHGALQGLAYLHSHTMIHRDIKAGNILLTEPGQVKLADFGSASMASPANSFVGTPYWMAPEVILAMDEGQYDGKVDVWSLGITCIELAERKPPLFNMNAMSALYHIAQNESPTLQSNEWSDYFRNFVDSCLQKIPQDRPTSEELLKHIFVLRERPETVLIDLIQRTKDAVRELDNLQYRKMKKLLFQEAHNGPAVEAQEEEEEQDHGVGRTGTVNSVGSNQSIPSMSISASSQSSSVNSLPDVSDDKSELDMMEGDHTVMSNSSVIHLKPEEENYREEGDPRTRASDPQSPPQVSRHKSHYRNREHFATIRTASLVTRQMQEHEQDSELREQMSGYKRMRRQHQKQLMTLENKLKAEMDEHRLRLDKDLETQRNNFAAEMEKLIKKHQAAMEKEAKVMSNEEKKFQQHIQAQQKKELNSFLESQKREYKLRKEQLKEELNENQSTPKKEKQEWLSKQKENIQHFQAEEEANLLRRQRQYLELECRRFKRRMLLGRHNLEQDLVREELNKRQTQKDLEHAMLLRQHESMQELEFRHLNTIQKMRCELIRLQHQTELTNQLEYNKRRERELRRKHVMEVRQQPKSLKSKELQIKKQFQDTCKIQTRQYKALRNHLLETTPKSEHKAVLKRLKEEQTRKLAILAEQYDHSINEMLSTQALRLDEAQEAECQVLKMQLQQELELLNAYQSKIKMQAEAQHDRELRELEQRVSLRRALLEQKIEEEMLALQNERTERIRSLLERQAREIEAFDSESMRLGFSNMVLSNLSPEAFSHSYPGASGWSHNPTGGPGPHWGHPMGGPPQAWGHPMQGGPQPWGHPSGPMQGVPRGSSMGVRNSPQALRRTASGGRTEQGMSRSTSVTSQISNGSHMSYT

`CN(C(=O)CN1CCOCC1)c1ccc2sc3c(-c4cccc5c(=O)cc(N6CC7CCC(C6)O7)oc45)cccc3c2c1` [NU5455]: the inhibition at 1 µM was determined as 3.7%.

These data come from publication PMC6934184, “Selective DNA-PKcs inhibition extends the therapeutic index of localized radiotherapy and chemotherapy” (The Journal of Clinical Investigation, 2019).
